Assays:
ARTD2/PARP2 = ARTD2/PARP2 (Homo sapiens, UniProt Q9UGN5); test: ARTD profiling, ARTD2
[1] = tested on: Wnt/β-catenin signaling (TCF/LEF Reporter HEK293 Cell Line); test: Wnt signaling TCF/LEF reporter assay in HEK293 cells; assay type: cell-based, human; details: Homo sapiens; for inhibition at 2 µM: HEK293, 2 µM compound, Wnt-reporter cell assay, read-out: Wnt (Inh.%, 2 µM)
Protocol: The Wnt assay was performed using a procedure modified from the BPS Bioscience protocol. Details are given in the Supplementary Methods. […]
The Wnt Signaling Pathway TCF/LEF Reporter HEK293 Cell Line (BPS Bioscience, catalog […]
Reporter HEK293 cells were grown at 37 °C with 5% CO2 using Dulbecco's Modified Eagle's Medium (DMEM, Sigma), supplemented with 10% of fetal bovine serum (Lonza), 1% non-essential amino acid (Sigma), 1X of penicillin and streptomycin (Sigma), and 400 µg/ml of Geneticin (Roche). Wnt-3a and L cells (ATCC) were cultured in Dulbecco’s modified Eagle’s medium supplemented with 10% fetal bovine serum, penicillin and streptomycin at 37 °C in a 5%
CO2. Wnt3a and control conditioned medium preparation has been described previously1. The Wnt assay was performed using a procedure modified from the BPS Bioscience protocol. 30,000 HEK293 cells/well in 40 µl of serum-free DMEM were plated on 96-well plate (white wells, clear […]
bottom, PerkinElmer). 10 µl of 50 mM LiCl in serum-free DMEM with 5x concentration of DMSO or tankyrase inhibitors was added. After 16 hours of incubation, 25 µl of Wnt3a or control conditioned medium supplemented with DMSO or tankyrase inhibitors was added on cells and cells were incubated for additional 24 hours. After the second incubation, the 96-well plates were balanced in room temperature for 30 minutes. Wnt3a induced luciferase activity was determined using ONE-Glo Luciferase Assay System (Promega) according to manufacturer’s protocol. […]
Difference Fourier method deriving the starting phases from 3U9H. The refinement of the structures was done with REFMAC5.5,6 Final manual building, analysis and visualization of the structures were made with Coot7 and PyMOL (www.pymol.org). All chemical structures were drawn with Marvin (Marvin 5.7.0 2011, ChemAxon, http://www.chemaxon.com). The docking studies were performed using GOLD software.8

TNKS2 = TNKS2 (Homo sapiens, UniProt Q9H2K2); test: NAD+ quantification activity assay, TNKS2; assay type: biochemical; details: TNKS2 IC50, NAD+ 500 nM
Chain of TNKS2 (Q9H2K2 959-1164): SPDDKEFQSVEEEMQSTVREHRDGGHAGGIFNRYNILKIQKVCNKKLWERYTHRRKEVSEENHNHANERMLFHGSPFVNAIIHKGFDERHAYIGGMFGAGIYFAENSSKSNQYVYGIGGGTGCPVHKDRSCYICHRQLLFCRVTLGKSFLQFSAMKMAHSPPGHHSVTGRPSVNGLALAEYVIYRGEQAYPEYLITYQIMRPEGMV
Protocol: The activity assay used to measure the potency of the compounds against TNKS2 is based on the quantification of NAD^+[38]. The reactions were carried out in 96-well plate (Greiner bio-one, U-shaped) and the conditions were the same as reported earlier (Table S5)[24].
The compounds were stored in 100% DMSO at −20 °C. All the compounds were diluted in the TNKS2 assay buffer (50 mM Bis-Tris Propane, 0.5 mM TCEP, 0.01% Triton-100x). Control reactions were used to exclude the effect of compound fluorescence and quenching from the calculations. […] The pIC50 values were calculated and fitted with nonlinear regression using 4-parameters with GraphPad Prism (version 5.0 for windows).
(§1) Protein (nM) NAD+ (nM) Incubation Buffer
(§2) Kinase [ATP] Substrate Incubation Reaction buffer

ARTD1/PARP1 = ARTD1/PARP1 (Homo sapiens, UniProt P09874); test: ARTD profiling, ARTD1
Chain of ARTD1/PARP1 (P09874 whole entry): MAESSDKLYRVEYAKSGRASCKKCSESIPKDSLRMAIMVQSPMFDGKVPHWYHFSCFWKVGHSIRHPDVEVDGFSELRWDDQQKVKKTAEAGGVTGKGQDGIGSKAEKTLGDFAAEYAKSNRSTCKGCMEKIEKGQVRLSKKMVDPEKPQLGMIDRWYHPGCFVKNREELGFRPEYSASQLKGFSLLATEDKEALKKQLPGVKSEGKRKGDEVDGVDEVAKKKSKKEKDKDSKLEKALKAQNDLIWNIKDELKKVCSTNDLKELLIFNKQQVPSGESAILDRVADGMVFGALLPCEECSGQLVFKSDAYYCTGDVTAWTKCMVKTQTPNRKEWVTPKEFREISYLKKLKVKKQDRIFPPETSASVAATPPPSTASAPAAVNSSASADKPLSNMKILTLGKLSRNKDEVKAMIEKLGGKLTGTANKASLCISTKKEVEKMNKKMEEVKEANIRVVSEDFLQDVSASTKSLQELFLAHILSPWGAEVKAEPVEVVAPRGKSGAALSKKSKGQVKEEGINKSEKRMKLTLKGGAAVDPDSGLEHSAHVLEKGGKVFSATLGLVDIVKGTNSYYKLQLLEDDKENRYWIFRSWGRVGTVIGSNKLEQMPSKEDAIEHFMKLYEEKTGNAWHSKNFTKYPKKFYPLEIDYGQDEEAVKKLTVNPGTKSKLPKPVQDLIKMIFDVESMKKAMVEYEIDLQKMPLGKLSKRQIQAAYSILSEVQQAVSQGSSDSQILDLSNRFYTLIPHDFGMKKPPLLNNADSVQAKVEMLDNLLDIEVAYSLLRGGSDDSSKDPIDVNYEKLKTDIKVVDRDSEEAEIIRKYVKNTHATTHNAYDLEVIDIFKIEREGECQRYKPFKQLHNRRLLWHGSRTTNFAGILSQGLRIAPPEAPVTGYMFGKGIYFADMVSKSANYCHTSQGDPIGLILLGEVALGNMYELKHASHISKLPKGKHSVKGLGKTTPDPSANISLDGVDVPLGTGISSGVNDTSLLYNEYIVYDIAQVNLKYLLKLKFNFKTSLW

ARTD5/TNKS1 = ARTD5/TNKS1 (Homo sapiens, UniProt O95271); test: NAD+ quantification activity assay, TNKS1; assay type: biochemical; details: NAD+ 500 nM
Chain of ARTD5/TNKS1 (O95271 1112-1317): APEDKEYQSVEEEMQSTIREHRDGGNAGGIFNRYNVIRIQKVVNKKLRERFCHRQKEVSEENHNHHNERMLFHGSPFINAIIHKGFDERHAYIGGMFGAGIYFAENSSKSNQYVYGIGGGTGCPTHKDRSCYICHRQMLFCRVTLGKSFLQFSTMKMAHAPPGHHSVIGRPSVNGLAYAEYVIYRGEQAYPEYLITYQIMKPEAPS
Protocol: as §1, §2

[2] = parameters: method as in PMID 24130191; details: previous study; read-out: IC50 in cell-based assay; cited from earlier work
ARTD8/PARP14 = ARTD8/PARP14 (Homo sapiens, UniProt Q460N5); test: ARTD profiling, ARTD8
Chain of ARTD8/PARP14 (Q460N5 whole entry): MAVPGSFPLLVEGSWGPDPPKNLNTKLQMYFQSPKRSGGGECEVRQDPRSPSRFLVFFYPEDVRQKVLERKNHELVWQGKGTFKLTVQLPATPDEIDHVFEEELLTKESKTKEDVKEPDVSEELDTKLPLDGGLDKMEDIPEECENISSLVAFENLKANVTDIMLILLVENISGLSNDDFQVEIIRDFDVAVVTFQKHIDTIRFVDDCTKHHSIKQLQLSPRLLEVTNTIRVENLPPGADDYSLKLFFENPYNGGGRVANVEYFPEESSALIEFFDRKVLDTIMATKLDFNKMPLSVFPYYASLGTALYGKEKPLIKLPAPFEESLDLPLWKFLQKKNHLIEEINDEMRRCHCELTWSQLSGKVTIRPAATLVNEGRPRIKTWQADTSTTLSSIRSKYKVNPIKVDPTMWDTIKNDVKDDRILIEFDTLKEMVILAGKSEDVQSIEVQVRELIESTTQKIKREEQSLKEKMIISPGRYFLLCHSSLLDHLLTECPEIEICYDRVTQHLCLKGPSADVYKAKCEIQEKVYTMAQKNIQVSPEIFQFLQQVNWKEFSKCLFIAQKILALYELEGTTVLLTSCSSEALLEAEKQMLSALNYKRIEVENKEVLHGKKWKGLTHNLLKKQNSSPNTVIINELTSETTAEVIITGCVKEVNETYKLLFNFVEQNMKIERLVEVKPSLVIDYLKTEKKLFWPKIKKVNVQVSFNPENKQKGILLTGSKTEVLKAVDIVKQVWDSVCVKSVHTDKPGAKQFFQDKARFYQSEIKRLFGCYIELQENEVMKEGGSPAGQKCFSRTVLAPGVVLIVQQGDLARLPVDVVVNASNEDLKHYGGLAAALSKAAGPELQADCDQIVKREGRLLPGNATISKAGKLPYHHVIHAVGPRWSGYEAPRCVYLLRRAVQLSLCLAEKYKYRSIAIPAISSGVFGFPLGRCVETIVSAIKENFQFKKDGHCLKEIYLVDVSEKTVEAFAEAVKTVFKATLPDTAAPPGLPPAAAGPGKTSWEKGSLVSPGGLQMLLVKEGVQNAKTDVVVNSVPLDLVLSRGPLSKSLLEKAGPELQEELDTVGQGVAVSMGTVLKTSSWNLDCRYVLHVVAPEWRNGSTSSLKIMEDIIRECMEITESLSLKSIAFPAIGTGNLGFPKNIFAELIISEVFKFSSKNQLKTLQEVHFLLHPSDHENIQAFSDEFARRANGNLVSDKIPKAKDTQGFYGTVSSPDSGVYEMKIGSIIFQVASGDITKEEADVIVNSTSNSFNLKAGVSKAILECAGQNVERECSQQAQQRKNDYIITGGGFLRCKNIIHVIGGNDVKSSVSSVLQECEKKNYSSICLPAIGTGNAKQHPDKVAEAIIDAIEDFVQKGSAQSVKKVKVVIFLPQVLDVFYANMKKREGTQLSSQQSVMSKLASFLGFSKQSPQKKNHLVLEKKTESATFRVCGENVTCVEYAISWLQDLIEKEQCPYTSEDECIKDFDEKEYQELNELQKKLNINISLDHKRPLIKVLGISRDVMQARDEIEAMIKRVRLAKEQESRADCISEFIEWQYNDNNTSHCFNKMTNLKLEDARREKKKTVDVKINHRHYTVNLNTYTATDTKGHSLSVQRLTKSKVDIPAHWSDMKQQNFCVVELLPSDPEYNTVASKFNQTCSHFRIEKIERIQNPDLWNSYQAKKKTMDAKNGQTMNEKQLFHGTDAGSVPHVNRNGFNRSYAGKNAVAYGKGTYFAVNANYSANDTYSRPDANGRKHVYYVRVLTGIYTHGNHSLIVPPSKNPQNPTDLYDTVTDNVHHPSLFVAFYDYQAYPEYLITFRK

ARTD3/PARP3 = molecular target: T1, ARTD3/PARP3 (Homo sapiens, UniProt Q9Y6F1); test: ARTD profiling, ARTD3; assay type: biochemical; details: NAD+ 500 nM
T1 sequence (Q9Y6F1 1-533): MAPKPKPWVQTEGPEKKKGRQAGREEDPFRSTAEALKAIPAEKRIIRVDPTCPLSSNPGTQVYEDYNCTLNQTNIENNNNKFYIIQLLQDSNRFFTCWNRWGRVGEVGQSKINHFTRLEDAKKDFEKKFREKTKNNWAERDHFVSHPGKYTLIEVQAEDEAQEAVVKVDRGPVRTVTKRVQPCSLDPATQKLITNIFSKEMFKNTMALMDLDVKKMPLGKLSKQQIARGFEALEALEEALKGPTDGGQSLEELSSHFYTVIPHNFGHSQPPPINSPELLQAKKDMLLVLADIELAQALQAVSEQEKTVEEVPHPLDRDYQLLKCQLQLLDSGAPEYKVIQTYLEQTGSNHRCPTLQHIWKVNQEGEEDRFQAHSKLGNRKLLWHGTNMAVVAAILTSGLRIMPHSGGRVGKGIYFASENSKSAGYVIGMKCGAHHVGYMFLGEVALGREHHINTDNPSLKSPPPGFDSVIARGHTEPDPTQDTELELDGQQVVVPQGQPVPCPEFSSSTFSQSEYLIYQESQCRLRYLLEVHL
Protocol: as §1, §2

ARTD10/PARP10 = molecular target: T2, ARTD10/PARP10 (Homo sapiens, UniProt Q53GL7); test: ARTD profiling, ARTD10
T2 sequence (Q53GL7 806-1025 limits assumed): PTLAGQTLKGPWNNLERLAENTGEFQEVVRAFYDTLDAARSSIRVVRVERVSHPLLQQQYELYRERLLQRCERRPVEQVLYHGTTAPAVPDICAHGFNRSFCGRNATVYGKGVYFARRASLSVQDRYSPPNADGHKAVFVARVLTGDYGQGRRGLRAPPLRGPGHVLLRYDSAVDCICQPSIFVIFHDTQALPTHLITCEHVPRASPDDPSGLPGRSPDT

ARTD15/PARP16 = molecular target: T3, ARTD15/PARP16 (Homo sapiens, UniProt Q8N5Y8); test: ARTD profiling, ARTD15
T3 sequence (Q8N5Y8 1-322): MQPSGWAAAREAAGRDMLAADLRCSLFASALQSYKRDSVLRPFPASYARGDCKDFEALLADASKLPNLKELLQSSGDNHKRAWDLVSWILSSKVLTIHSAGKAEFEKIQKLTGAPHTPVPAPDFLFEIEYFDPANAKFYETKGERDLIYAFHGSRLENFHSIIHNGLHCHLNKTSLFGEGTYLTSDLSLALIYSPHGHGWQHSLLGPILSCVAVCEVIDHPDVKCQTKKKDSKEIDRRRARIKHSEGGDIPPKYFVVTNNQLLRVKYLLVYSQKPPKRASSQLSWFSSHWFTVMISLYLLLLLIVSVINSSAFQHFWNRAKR

ARTD4/PARP4 = molecular target: T4, ARTD4/PARP4 (Homo sapiens, UniProt Q9UKK3); test: ARTD profiling, ARTD4
T4 sequence (Q9UKK3 369-573 limits assumed): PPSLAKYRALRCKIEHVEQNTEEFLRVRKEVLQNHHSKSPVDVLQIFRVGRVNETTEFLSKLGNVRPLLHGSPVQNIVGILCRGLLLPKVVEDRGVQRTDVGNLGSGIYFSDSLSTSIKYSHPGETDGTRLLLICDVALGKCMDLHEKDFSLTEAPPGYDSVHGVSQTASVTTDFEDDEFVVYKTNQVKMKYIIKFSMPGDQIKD

ARTD12/PARP12 = molecular target: T5, ARTD12/PARP12 (Homo sapiens, UniProt Q9H0J9); test: ARTD profiling, ARTD12
T5 sequence (Q9H0J9 484-698 limits assumed): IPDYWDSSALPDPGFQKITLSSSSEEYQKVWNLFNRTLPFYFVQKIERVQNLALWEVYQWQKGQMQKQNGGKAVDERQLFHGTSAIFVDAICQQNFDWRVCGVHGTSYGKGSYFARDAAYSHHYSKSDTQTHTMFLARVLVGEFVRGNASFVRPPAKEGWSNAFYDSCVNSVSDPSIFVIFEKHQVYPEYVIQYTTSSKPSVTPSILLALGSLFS

ARTD7/PARP15 = molecular target: T6, ARTD7/PARP15 (Homo sapiens, UniProt Q460N3); test: ARTD profiling, ARTD7
T6 sequence (Q460N3 482-678 limits assumed): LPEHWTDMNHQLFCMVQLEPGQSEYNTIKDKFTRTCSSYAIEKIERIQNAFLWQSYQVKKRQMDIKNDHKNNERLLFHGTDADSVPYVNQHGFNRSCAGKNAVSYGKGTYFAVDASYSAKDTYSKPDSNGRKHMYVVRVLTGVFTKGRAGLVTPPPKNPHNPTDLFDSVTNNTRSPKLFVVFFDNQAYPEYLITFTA

Chain of ARTD2/PARP2 (Q9UGN5 whole entry): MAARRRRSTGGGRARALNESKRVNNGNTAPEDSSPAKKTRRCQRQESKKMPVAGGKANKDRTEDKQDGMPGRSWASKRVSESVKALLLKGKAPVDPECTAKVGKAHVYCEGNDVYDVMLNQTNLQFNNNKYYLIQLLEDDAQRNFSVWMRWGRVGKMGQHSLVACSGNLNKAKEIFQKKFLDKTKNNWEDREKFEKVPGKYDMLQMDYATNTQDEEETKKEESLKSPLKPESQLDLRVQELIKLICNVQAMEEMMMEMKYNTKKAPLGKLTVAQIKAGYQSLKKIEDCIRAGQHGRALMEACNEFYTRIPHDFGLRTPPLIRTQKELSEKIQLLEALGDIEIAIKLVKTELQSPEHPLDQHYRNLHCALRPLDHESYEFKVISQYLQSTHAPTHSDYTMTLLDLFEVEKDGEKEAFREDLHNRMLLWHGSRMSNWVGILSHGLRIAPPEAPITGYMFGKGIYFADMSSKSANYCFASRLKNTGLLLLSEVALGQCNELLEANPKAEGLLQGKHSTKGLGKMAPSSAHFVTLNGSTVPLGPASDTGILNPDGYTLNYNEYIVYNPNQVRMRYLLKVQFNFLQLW

| Compound | IC50 (ARTD2/PARP2) [nM] | inhibition at 2 µM [1] [%] | IC50 (TNKS2) [nM] | IC50 (ARTD1/PARP1) [nM] | IC50 (ARTD5/TNKS1) [nM] | IC50 [2] [nM] | IC50 (ARTD8/PARP14) [nM] | IC50 (ARTD3/PARP3) [nM] | inhibition at 1 µM ([1]; HEK293, 1 µM compound, TCF/LEF reporter HEK293) [%] | IC50 (ARTD10/PARP10) [nM] | IC50 (ARTD15/PARP16) [nM] | IC50 (ARTD4/PARP4) [nM] | IC50 (ARTD12/PARP12) [nM] | IC50 (ARTD7/PARP15) [nM] |
| --- | --- | --- | --- | --- | --- | --- | --- | --- | --- | --- | --- | --- | --- | --- |
| CC1(c2ccc(-c3nc4ccccc4c(=O)[nH]3)cc2)CNC(=O)N1 (centres unmarked) [Compound 9] | 870 | 72 | 10 | 1000 | 10 |  |  |  |  |  |  |  |  |  |
| CC1(c2ccc(-c3nc4ccccc4c(=O)[nH]3)cc2)NC(=O)NC1=O (centres unmarked) [Compound 2] | 340 | 68 | 3.3 | 374 | 5.9 | ~1000 |  |  |  |  |  |  |  |  |
| CN(CCO)c1ccc(-c2nc3ccccc3c(=O)[nH]2)cc1 [Compound 33] | 860 |  | 16 | 1700 | 77 |  | 3200 | 3800 | 20 | 3100 | > 10000 | 2000 | > 10000 | > 10000 |
